Values joined by “and” are separate entries in the source; they are usually repeats but may differ in a detail not shown here. Identical values can stand only once.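 Test compounds were applied to cells in 96-well plates for 48 hours at 5 doses. Abbreviation: GI50, concentration required for 50% inhibition of growth. TGI denotes the concentration required for complete inhibition of growth.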
Experiments:
Assay in all cases: DTP human tumour cell line panel, 48 h
SF-268 CNS = tested on: SF-268 CNS
SNB-19 CNS = tested on: SNB-19 CNS
UO-31 renal = tested on: UO-31 renal
NCI-H23 lung = tested on: NCI-H23 lung
HT29 colon = tested on: HT29 colon
CCRF-CEM leukemia = tested on: CCRF-CEM leukemia
SF-539 CNS = tested on: SF-539 CNS
M14 melanoma = tested on: M14 melanoma
NCI-H522 lung = tested on: NCI-H522 lung
DU-145 prostate = tested on: DU-145 prostate

Structure (SMILES) | GI50 (SF-268 CNS) [µM] | TGI (SF-268 CNS) | GI50 (SNB-19 CNS) [µM] | TGI (SNB-19 CNS) | GI50 (UO-31 renal) [µM] | TGI (UO-31 renal) | GI50 (NCI-H23 lung) [µM] | TGI (NCI-H23 lung) | GI50 (HT29 colon) [µM] | TGI (HT29 colon) | GI50 (CCRF-CEM leukemia) [µM] | TGI (CCRF-CEM leukemia) | GI50 (SF-539 CNS) [µM] | GI50 (M14 melanoma) [µM] | TGI (M14 melanoma) | GI50 (NCI-H522 lung) [µM] | TGI (NCI-H522 lung) | TGI (DU-145 prostate) [µM] | TGI (SF-539 CNS) [µM] | GI50 (DU-145 prostate) [µM]
COC(=O)NC1C(C)OC(OC2C/C=C(/C)C3C=CC4C(OC5CC(OC6CCC(OC7CC(O)C(OC8CCC(O)C(C)O8)C(C)O7)C(C)O6)C(OC(C)=O)C(C)O5)C(C)CC(C)C4C3(C)/C(O)=C3/C(=O)OC4(CC(C=O)=CC(O)C4/C=C\2C)C3=O)CC1(C)[N+](=O)[O-] (stereo not drawn) | 0.105 | 11.2 µM and 9.73 µM | 0.0728 | 3.45 µM and 0.509 µM | 0.254 | 3.76 µM and 0.521 µM | 0.171 | 2.22 µM and 0.403 µM | 0.352 | 2.61 µM and 12.8 µM | 0.0687 | 4.86 µM and 1.78 µM | 0.0287 | 0.382 | 2.42 µM and 1.54 µM | 0.222 | 2.8 µM and 0.645 µM | 5.07 | – | –
CC(C)=CCc1cc2c(cc1O)C1=C(C(=O)C3=C(C1=O)S(=O)(=O)CCN3)C(C=C(C)C)O2 (stereo not drawn) | 0.917 | 4.74 µM | 0.651 | 2.64 µM | 1.82 | 4.59 µM | 0.7 | 4.01 µM | 0.634 | 2.22 µM | 0.696 | 8.98 µM | 1.96 | 0.35 | 1.2 µM | 0.568 | 1.85 µM | 0.597 | 4.02 | 0.309
CN(C)c1ccc(/C=C\c2ccnc3ccccc23)cc1 | 21.8 | > 100 µM | 10.6 | > 100 µM | 4.4 | 68.7 µM | 3.63 | 63.4 µM | 2.49 | 12.4 µM | 5.13 | > 100 µM | 5.17 | 4.42 | > 66 µM | 6.4 | > 100 µM | > 88.5 | 25.8 | 12.1
Cc1cc(=O)oc2ccc(OC/C=C3\CCC(=O)O3)cc12 | 13.2 | 43.6 µM | 13 | 30.8 µM | 2.09 | 10.2 µM | 10.4 | 25.2 µM | 3.62 | 15.5 µM | 2.61 | 7.96 µM | 7.95 | 1.75 | 5.37 µM | 1.65 | 3.57 µM | 17.7 | 25.5 | 3.62
Oc1ccc(Cl)cc1C(c1cc(Cl)ccc1O)C(Cl)(Cl)Cl | 1.77 | 3.41 µM | 3.24 | 10.8 µM | 1.5 | 4.78 µM | 1.73 | 3.96 µM | 2.05 | 4 µM | 3.2 | 8.02 µM | 1.69 | 1.78 | 3.62 µM | 1.87 | 5.44 µM | 3.42 | 3.67 | 1.77
COc1ccc2nc3cc(Cl)ccc3c(NCCCNCCO)c2c1 | 0.577 | 2.66 µM | 0.5 | 3.79 µM | 0.602 | 3.19 µM | 0.499 | 2.48 µM | 0.292 | 1.41 µM | 0.476 | 2.28 µM | 0.508 | 0.562 | 2.16 µM | 0.379 | 1.63 µM | 2.77 | 2.35 | 0.48
COc1cc2c(c(OC)c1OC)-c1ccc(NN(C(=O)c3ccccc3)C(=O)c3ccccc3)c(=O)cc1[C@@H](NC(C)=O)CC2 (tested in a mixture with another compound) | 4.61 | > 100 µM | 6.7 | > 100 µM | 4.59 | 41.6 µM | 3.91 | 37.6 µM | 2.93 | 11.1 µM | 3.57 | > 100 µM | 3.08 | 2.36 | 6.45 µM | 2.01 | 6.18 µM | > 100 | 10.5 | 3.3
COc1cc(/C=C/C(=O)c2cccc(-n3cc(-c4cc(OC)c(OC)c(OC)c4)[nH]c3=O)c2)cc(OC)c1OC | 2.2 | 7.47 µM | 4.07 | 15.8 µM | 0.962 | 3.13 µM | 2 | 4.68 µM | 1.7 | 7.03 µM | 0.275 | > 100 µM | 3.12 | 2.12 | 4.8 µM | 1.05 | 2.53 µM | 13.6 | 18 | 2.98
COc1ccc(-c2cc(=O)c3c(O)c(OC)c(OC)c(OC)c3o2)cc1OC | – | 51.6 µM | – | > 100 µM | – | > 100 µM | – | > 100 µM | – | > 100 µM | – | > 100 µM | – | – | > 100 µM | – | 43.9 µM | > 100 | > 100 | –
